In ChEMBL document CHEMBL3862039 (ACS Med Chem Lett, 2016):
Substitutions are numbered along the chain they refer to. Calls of active or inactive are those of the source. The rule behind the calls is not given here.

Assays:
[1] = molecular target: T1, Androgen receptor (Homo sapiens) (UniProt P10275); conditions: LNCaP, at 5 µM
T1 sequence (whole entry): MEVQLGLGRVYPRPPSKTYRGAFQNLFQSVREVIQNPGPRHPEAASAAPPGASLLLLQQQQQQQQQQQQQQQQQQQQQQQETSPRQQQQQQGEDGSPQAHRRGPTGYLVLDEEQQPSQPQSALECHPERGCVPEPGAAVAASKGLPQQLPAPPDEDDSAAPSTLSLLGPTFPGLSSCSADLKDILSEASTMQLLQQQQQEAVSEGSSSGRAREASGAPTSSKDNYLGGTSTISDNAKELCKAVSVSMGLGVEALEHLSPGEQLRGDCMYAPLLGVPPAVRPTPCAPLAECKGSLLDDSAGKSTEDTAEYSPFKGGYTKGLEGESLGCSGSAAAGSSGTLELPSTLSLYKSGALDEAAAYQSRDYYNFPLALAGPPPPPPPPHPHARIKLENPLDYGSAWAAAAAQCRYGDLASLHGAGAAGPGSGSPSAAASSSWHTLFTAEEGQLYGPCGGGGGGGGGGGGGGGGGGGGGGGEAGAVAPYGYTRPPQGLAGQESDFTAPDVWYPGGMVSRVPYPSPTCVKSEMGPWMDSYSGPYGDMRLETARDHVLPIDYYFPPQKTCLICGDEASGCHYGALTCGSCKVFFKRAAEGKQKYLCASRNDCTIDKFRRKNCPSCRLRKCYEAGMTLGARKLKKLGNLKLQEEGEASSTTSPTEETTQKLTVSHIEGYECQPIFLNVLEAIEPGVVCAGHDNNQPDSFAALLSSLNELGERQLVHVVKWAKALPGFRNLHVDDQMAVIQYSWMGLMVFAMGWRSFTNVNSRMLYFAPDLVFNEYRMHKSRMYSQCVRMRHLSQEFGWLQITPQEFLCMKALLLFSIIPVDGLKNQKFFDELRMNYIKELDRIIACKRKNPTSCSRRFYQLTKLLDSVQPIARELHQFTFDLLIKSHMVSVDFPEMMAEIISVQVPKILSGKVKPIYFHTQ
Description: Antagonist activity at AR in human LNCAP cells assessed as suppression of DHT-induced receptor transcriptional activity at 5 uM after 24 hrs by dual luciferase reporter gene assay

[2] = molecular target: T2, Androgen receptor (Rattus norvegicus) (UniProt P15207); test: (§1) Displacement of fluormone-DHT green from His/GST-tagged rat AR ligand binding domain after 4 to 8 hrs by fluorescence polarization assay
T2 sequence (whole entry): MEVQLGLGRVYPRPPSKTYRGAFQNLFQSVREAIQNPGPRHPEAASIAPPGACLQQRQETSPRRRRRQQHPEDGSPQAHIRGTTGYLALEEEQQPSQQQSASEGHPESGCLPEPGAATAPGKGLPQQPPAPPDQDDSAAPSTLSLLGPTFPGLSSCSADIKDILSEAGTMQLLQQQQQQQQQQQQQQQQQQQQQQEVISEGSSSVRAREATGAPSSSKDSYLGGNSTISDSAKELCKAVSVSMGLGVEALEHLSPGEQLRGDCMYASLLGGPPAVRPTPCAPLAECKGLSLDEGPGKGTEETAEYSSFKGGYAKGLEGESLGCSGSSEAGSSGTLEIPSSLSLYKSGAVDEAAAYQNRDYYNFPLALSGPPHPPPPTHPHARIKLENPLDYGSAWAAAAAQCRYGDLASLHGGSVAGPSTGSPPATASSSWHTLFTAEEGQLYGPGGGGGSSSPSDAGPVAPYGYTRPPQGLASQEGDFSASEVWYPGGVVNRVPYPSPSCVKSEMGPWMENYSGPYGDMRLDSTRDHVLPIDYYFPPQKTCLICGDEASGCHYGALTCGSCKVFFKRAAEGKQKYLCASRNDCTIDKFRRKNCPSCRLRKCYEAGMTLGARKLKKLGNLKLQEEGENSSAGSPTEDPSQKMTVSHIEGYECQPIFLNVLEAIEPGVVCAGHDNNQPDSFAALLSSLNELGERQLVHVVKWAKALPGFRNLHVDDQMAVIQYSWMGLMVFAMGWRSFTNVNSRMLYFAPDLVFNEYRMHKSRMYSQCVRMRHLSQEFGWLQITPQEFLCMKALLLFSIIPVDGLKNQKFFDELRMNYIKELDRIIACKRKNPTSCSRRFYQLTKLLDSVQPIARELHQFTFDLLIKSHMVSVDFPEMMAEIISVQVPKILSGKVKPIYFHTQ

[3] = molecular target: T3, Androgen receptor (Rattus norvegicus, UniProt P15207); test: as §1
T3 sequence (P15207 whole entry): T2 sequence (whole entry)

[4] = test system: LNCaP; test: Cytotoxicity against human LNCAP cells assessed as cell growth inhibition after 72 hrs by MTT assay; type: functional, cell-based
[5] = test system: T4, Androgen receptor (Homo sapiens), P10275 [F877L]; test: Antagonist activity at AR F876L mutant (unknown origin) transfected in human PC3 cells assessed as suppression of DHT-induced receptor transcriptional activity at 500 nM after 24 hrs by PSA-luciferase reporter gene assay; type: cell-based; conditions: PC-3
T4 sequence (whole entry): T1 sequence (whole entry) with F877L

[6] = test system: T4, Androgen receptor (Homo sapiens), P10275 [F877L]; test: (§2) Antagonist activity at AR F876L mutant (unknown origin) expressed in human PC3 cells assessed as inhibition of DHT-induced receptor transactivation after 24 hrs by PSA-luciferase reporter gene assay; type: cell-based; conditions: PC-3
[7] = molecular target: Androgen receptor (Homo sapiens, UniProt P10275, F877L); test: as §2; type: cell-based, PC-3
[8] = molecular target: T1, Androgen receptor (Homo sapiens); test: Antagonist activity at AR in human LNCAP cells assessed as downregulation of AR protein expression after 24 hrs by Western blot analysis; type: cell-based
[9] = molecular target: T1, Androgen receptor (Homo sapiens); test: Antagonist activity at AR in human LNCAP cells assessed as suppression of DHT-induced receptor transcriptional activity at 500 nM after 24 hrs by dual luciferase reporter gene assay; type: cell-based
[10] = molecular target: T1, Androgen receptor (Homo sapiens); test: Antagonist activity at AR in human LNCAP cells assessed as downregulation of PSA mRNA levels at 500 nM after 24 hrs in presence of DHT by RT-PCR analysis; type: cell-based
[11] = molecular target: Androgen receptor (Homo sapiens, UniProt P10275, T878A); test: (§3) Antagonist activity at AR T877A mutant (unknown origin) transfected in human PC3 cells assessed as inhibition of DHT-induced receptor transcriptional activation after 24 hrs by PSA-luciferase reporter gene assay; type: cell-based, PC-3
[12] = test system: Androgen receptor (Homo sapiens), P10275 [T878A]; test: as §3; type: cell-based; conditions: PC-3
[13] = molecular target: T1, Androgen receptor (Homo sapiens); test: Antagonist activity at AR in human LNCAP cells assessed as downregulation of PSA mRNA levels at 5 uM after 24 hrs in presence of DHT by RT-PCR analysis; type: cell-based
[14] = molecular target: T5, Androgen receptor (Homo sapiens, UniProt P10275); test: (§4) Antagonist activity at wild type AR in human PC3 cells assessed as suppression of DHT-induced receptor transcriptional activation after 24 hrs by PSA-luciferase reporter gene assay; type: cell-based, PC-3
T5 sequence (P10275 whole entry): T1 sequence (whole entry)

[15] = molecular target: T1, Androgen receptor (Homo sapiens); test: as §4; type: cell-based; conditions: PC-3
[16] = cells; conditions: Homo sapiens, PC-3, 24 h
Description: Antagonist activity at AR W741C/T877A double mutant (unknown origin) transfected in human PC3 cells assessed as inhibition of DHT-induced receptor transcriptional activation after 24 hrs by PSA-luciferase reporter gene assay

[17] = test system: PC-3; test: Cytotoxicity against human PC3 cells assessed as cell growth inhibition after 72 hrs by MTT assay; type: functional, cell-based
[18] = test system: PC-3; test: Agonist activity at AR W741C/T877A double mutant (unknown origin) expressed in human PC3 cells assessed as receptor transactivation at 5 uM after 24 hrs by PSA-luciferase reporter gene assay; type: cell-based

Sequence of Androgen receptor (Homo sapiens, UniProt P10275, F877L) (P10275 whole entry F877L): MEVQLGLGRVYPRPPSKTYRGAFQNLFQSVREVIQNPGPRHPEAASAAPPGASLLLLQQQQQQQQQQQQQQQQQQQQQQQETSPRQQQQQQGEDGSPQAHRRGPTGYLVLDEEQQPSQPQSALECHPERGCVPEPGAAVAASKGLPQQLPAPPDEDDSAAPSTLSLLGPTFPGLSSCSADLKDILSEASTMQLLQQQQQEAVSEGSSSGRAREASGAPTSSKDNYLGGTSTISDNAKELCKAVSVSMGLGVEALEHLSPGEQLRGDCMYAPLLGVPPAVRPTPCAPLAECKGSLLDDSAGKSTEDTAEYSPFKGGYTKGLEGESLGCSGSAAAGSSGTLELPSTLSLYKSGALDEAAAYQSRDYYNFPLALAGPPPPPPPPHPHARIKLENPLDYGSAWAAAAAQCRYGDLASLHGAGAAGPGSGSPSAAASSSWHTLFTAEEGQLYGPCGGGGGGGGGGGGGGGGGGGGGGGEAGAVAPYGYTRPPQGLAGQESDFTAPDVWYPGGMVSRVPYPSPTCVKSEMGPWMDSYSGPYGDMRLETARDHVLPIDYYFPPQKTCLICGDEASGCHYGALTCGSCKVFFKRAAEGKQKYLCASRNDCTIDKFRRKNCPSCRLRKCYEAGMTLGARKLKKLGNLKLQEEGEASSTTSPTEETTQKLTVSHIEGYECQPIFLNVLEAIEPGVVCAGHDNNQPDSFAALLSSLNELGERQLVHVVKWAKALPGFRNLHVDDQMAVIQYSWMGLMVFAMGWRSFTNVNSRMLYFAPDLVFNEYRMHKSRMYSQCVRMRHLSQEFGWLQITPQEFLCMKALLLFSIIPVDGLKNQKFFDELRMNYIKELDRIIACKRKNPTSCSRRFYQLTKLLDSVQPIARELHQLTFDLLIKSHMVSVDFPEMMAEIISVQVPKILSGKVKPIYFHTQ
Sequence of Androgen receptor (Homo sapiens, UniProt P10275, T878A) (P10275 whole entry T878A): as the sequence (P10275 whole entry F877L) above, with L877F, T878A counted along it
Sequence of Androgen receptor (Homo sapiens), P10275 [T878A] (P10275 whole entry T878A): as the sequence (P10275 whole entry F877L) above, with L877F, T878A counted along it

In the case of `CC1(C)[C@@H](O)CC[C@]2(C)[C@H]3CC=C4[C@@H]5C[C@@]6(C)C[C@H](OC6=O)[C@]5(C)CC[C@@]4(C)[C@]3(C)CC[C@@H]12`, the inhibition [1] is reported as “Active”.

In the case of `CC(C)c1ccc2c(c1O)CC[C@H]1C3=C(CC[C@]21C)C(=O)OC3` [TRIPTOPHENOLIDE], the inhibition [2] is reported as “Dose-dependent effect”, the IC50 [3] is reported as 467 nM and the “growth inhibition (GI)” value [4] is reported as “Dose-dependent effect”. The inhibition [5] was “Active”, the inhibition [6] was “Dose-dependent effect” and the IC50 [7] was 480 nM. The inhibition [8] was “Dose-dependent effect”, the inhibition [9] was “Active” and the inhibition [1] was “Active”. For the same molecule, the inhibition [10] was “Active”, the IC50 [11] was 388 nM and the inhibition [12] was “Dose-dependent effect”. For the same molecule, the inhibition [13] was “Active”, the IC50 [14] was 260 nM and the inhibition [15] was “Dose-dependent effect”. The IC50 [16] was 437 nM and the “growth inhibition (GI)” value [17] was “Active”.

For `CC(O)(CS(=O)(=O)c1ccc(F)cc1)C(=O)Nc1ccc(C#N)c(C(F)(F)F)c1` (stereo not given), the Activity [18] was “Active”.

For `C[C@@]1(C(=O)O)CC[C@]2(C)CC[C@]3(C)C4=CC(=O)c5c(cc(O)c(O)c5C=O)[C@]4(C)CC[C@@]3(C)[C@@H]2C1`, the inhibition [1] was “Active”.

In the case of `CC1=C(O)C(=O)C=C2C1=CC=C1[C@@]2(C)CC[C@@]2(C)[C@@H]3C[C@](C)(C(=O)O)CC[C@]3(C)CC[C@]12C`, the inhibition [1] is reported as “Active”.

With `CC(C)[C@]12O[C@H]1[C@@H]1O[C@]13[C@]1(O[C@H]1C[C@H]1C4=C(CC[C@@]13C)C(=O)OC4)[C@@H]2O` the inhibition [9] was “Active” and the inhibition [1] was “Active”.

For `CC(C)[C@]12O[C@H]1[C@@H]1O[C@@]13[C@@]1(C)CCC4=C(COC4=O)[C@@H]1C[C@@H]1O[C@@]13C2=O`, the inhibition [9] was “Active” and the inhibition [1] was “Active”.
